Reference: ChEMBL document CHEMBL5523746, “Discovery of Novel Peptide Antagonists Targeting GPR55 for Liver Inflammation and Fibrosis” (2024)
The source made the active and inactive calls. No cut-off for these calls is given here. Bridge positions count the residues as written; N and C are the ends. Peptide text beside a SMILES is read from it.

How the values were obtained:
[1] = system: LX-2; test: Anti-fibrotic activity in human LX2 cells assessed as reduction in COL1alpha expression by measuring relative inhibition rate measured after 24 hrs incubation by Western blot analysis relative to control; format: functional; parameters: concentration or dose not given beside the values
[2] = system: Mus musculus; test: In vivo anti-fibrotic activity against CCl4-induced liver fibrosis C57BL/6J mouse model assessed as decrease in steatosis and inflammation at 150 to 300 microg/kg once daily for 3 weeks by H and E staining based assay; format: functional, organism-based; settings: dose 150-300 µg/kg
[3] = system: Mus musculus; test: In vivo anti-fibrotic activity against CCl4-induced liver fibrosis C57BL/6J mouse model assessed as decrease in alpha-SMA at 150 to 300 microg/kg once daily for 3 weeks by IHC staining based assay; format: functional, organism-based; settings: dose 150-300 µg/kg
[4] = system: Mus musculus; test: In vivo anti-fibrotic activity against CCl4-induced liver fibrosis C57BL/6J mouse model assessed as liver function by measuring decrease in hydroxyproline (HYP) at 150 to 300 microg/kg once daily for 3 weeks by Western blot analysis; format: functional, organism-based; settings: dose 150-300 µg/kg
[5] = system: Mus musculus; test: In vivo anti-fibrotic activity against CCl4-induced liver fibrosis C57BL/6J mouse model assessed as liver function by measuring decrease in amino-transferase (ALT) at 150 to 300 microg/kg once daily for 3 weeks by Western blot analysis; format: functional, organism-based; settings: dose 150-300 µg/kg
[6] = system: Mus musculus; test: In vivo anti-fibrotic activity against CCl4-induced liver fibrosis C57BL/6J mouse model assessed as reduction in Acta2 mRNA level at 150 to 300 microg/kg once daily for 3 weeks by RT-qPCR analysis; format: functional, organism-based; settings: dose 150-300 µg/kg
[7] = system: Mus musculus; test: In vivo anti-fibrotic activity against CCl4-induced liver fibrosis C57BL/6J mouse model assessed as decrease in pro-apoptotic protein CHOP level at 300 microg/kg once daily for 3 weeks by Western blot analysis; format: functional, organism-based; settings: dose 300.0 µg/kg
[8] = system: Mus musculus; test: In vivo anti-fibrotic activity against CCl4-induced liver fibrosis C57BL/6J mouse model assessed as decrease in pro-apoptotic protein caspase-8 level at 300 microg/kg once daily for 3 weeks by Western blot analysis; format: functional, organism-based; settings: dose 300.0 µg/kg
[9] = system: Mus musculus; test: In vivo anti-fibrotic activity against methionine and choline-deficient (MCD) diet-induced liver fibrosis C57BL/6J mouse model assessed as decrease in inflammatory infiltration and collagen deposition at 150 to 300 microg/kg once daily for 3 weeks by H and E staining based assay; format: functional, organism-based; settings: dose 150-300 µg/kg
[10] = system: Mus musculus; test: In vivo anti-fibrotic activity against methionine and choline-deficient (MCD) diet-induced liver fibrosis C57BL/6J mouse model assessed as decrease in inflammatory infiltration and collagen deposition at 150 to 300 microg/kg once daily for 3 weeks by ORO staining based assay; format: functional, organism-based; settings: dose 150-300 µg/kg
[11] = system: Mus musculus; test: In vivo anti-fibrotic activity against methionine and choline-deficient (MCD) diet-induced liver fibrosis C57BL/6J mouse model assessed as decrease in inflammatory infiltration and collagen deposition at 150 to 300 microg/kg once daily for 3 weeks by Sirius Red staining based assay; format: functional, organism-based; settings: dose 150-300 µg/kg
[12] = system: Mus musculus; test: Reduction in fatty acid synthesis related gene expression in methionine and choline-deficient (MCD) diet-induced liver fibrosis C57BL/6J mouse model assessed as reduction in SCD1 mRNA level at 150 to 300 microg/kg once daily for 3 weeks by qPCR analysis; format: functional, organism-based; settings: dose 150-300 µg/kg
[13] = system: Mus musculus; test: In vivo anti-fibrotic activity against methionine and choline-deficient (MCD) diet-induced liver fibrosis C57BL/6J mouse model assessed as reduction in oxidative stress by measuring decrease in lipid oxidation product MDA at 150 to 300 microg/kg once daily for 3 weeks by enzyme activity assay; format: functional, organism-based; settings: dose 150-300 µg/kg
[14] = system: Mus musculus; test: In vivo anti-fibrotic activity against methionine and choline-deficient (MCD) diet-induced liver fibrosis C57BL/6J mouse model assessed as reduction in oxidative stress by measuring increase in catalase at 150 to 300 microg/kg once daily for 3 weeks by enzyme activity assay; format: functional, organism-based; settings: dose 150-300 µg/kg

## CC[C@H](C)[C@@H]1NC(=O)[C@H]([C@@H](C)O)NC(=O)[C@@H]2CCCN2C(=O)[C@H](CO)NC(=O)[C@H](CC(N)=O)NC(=O)[C@H](CCCCN)NC(=O)[C@H](CCCCN)NC(=O)[C@@H](N)CSSC[C@@H](C(=O)O)NC1=O (H-CKKNSPTIC-OH; disulfide 1-9)
[1]
  Activity: 40%
[2]
  Activity: Active
[3]
  Activity: Active
[4]
  Activity: Active
[5]
  Activity: Active
[6]
  Activity: Active
[7]
  Activity: Active
[8]
  Activity: Active
[9]
  Activity: Active
[10]
  Activity: Active
[11]
  Activity: Active
[12]
  Activity: Active
[13]
  Activity: Active
[14]
  Activity: Active
